Experimental data as given in patent US20040138826A1, “Experimental design and data analytical methods for detecting and characterizing interactions and interaction thresholds on fixed ratio rays of polychemical mixtures and subsets thereof” (priority 2002, published 2004).
Where “and” joins values, the source holds several entries; their conditions need not be identical. Identical values can stand only once. Entries after “also recorded” stand apart in the source; their conditions may differ. Like-named read-outs stand apart in the source and are kept apart here.

Legend:
healthy adult rats = conditions: for Threshold Estimate: dose threshold for motor activity, threshold additivity model, SAR analysis; for Threshold Estimate / Mean Motor Activity Response: rats; for Mean Motor Activity Response: single chemical
Excerpt: To motivate the use of these fixed-ratio mixture ray designs consider a study which examines exposure to environmentally relevant pesticides. The OP pesticides chosen for study, based on usage patterns (i.e. pesticides used on same or similar crops) and market share (i.e. highest volume pesticides), were acephate, diazinon, chlorpyrifos, dimethoate, and malathion. Motor activity, a count of the number of passes made across a central area, was used to assess toxicity in healthy adult rats. A full five-pesticide fixed-ratio ray, given by (0.040:0.002:0.031:0.102:0.825) for (acephate:diazinon:chlorpyrifos:dimethoate:malathion), was chosen based on relative dietary exposure estimates of each chemical as projected by the U.S. EPA Dietary Exposure Evaluation Model (DEEM).
Single chemical data were collected approximately 18 months prior to the data along the full fixed-ration ray.
Fixed-ratio ray designs were chosen to study interactions among combinations of multiple pesticides. The pesticides chosen for these studies, based on usage patterns (i.e., pesticides used on the same or similar crops) and market share (i.e., highest volume pesticides), were acephate, diazinon, chlorpyrifos, dimethoate, and malathion. Motor activity, a count of the number of passes made across a central area, was chosen to assess the toxicity of these pesticides in healthy adult rats. The fixed-ratio ray under study was chosen based on the relative dietary exposure estimates of each chemical as projected by the U.S. EPA Dietary Exposure Evaluation Model (DEEM) and is given by (0.040:0.002:0.031:0.102:0.825) for acephate, diazinon, chlorpyrifos, dimethoate, and malathion respectively.
The five-pesticide study described in the introduction is used to illustrate the sample size and power methods developed in Section 3. Due to the high potential of aggregate exposure to OP pesticides, researchers were initially interested in testing the hypothesis of additivity, given in (5), along the full five-pesticide fixed-ratio ray, given by (0.040:0.002:0.031:0.102:0.825) for ([…]), that represents relative dietary exposure estimates. Single chemical data were collected and used to estimate an additivity model along the ray (analysis not shown). Since, the motor activity response is a count variable it was assumed that V(m)=m and the log link function (McCullagh and Nelder, 1989) was used to fit the generalized linear additivity model described in Section 2. […] Eighty-six animals were considered. Fourteen animals were evaluated in the control group. Twelve animals each were evaluated at 10, 55, 100, 200, 300, and 450 mg/kg. Summary statistics for the single chemical and mixture data are provided in the appendix.
The five-pesticide study described in the introduction is used to illustrate the design methodology developed in the following sections. Due to the high potential for aggregate exposure to OP pesticides, researchers were initially interested in testing the hypothesis of additivity, given in (4), along the full five-pesticide fixed-ratio ray, given by (0.040:0.002:0.031:0.102:0.825) for (acephate:diazinon:chlorpyrifos:dimethoate:malathion). Since motor activity response is a count variable, it was assumed that V(μ)=μ and the log link function (McCullagh and Nelder, 1989) was used to fit the generalized linear additivity model given in (1). […] Eighty-six animals were considered. Fourteen animals were evaluated in the control group. Twelve animals each were evaluated at 10, 55, 100, 200, 300, and 450 mg/kg.

rats = conditions: for effect when given alone on gait abnormality: single chemical data, rats
Excerpt: The endpoint of interest is neurotoxicity in rats as measured by a gait score dichotomized to indicate presence or absence of a gait abnormality (i.e., incoordination, loss of balance, etc.). The fixed-ratio ray under study was chosen based on the relative dietary exposure estimates of each chemical as projected by the U.S. EPA Dietary Exposure Evaluation Model (DEEM) and is given by (0.040:0.002:0.031:0.825:0.102) for ACE, DIA, CPF, MAL, DIM, respectively. […] (Note: Such a strategy can be extended for identifying the impact of the unidentified fraction in a complex mixture.)
The biological endpoint of interest is an indicator of neurotoxicity based on evidence of the presence or absence of a gait abnormality (Moser, 1995). In order to appropriately constrain the probability of a response to be between 0 and 1, a logit link function was used, i.e., g(μ)=log(μ/(1−μ)). It was assumed throughout that the variance changes as a binomial random variable such that Var(Y)=τμ(1−μ) (e.g., McCullagh and Nelder, 1989).
The resulting mixture experiment consisted of a vehicle control (n=14), ‘positive controls’ for ACE alone (6 and 30 mg/kg; n=6, 14, respectively), CPF alone (10, 20, 30 mg/kg; n=6, 8, 6, respectively), DIAZ alone (50 and 125 mg/kg; n=6, 14, respectively), MAL alone (350 mg/kg; n=14), DIM alone (10, 25, 50 mg/kg; n=6, 8, 6, respectively), and six total dose mixture concentrations (10, 55, 100, 200, 300 and 450 mg/kg; n=12 rats per dose group for a total of 72 rats exposed to a mixture of the chemicals) at a fixed mixing ratio ray of (0.040:0.002:0.031:0.825:0.102) for (ACE:DIA:CPF:MAL:DIM). Similarly, the design for a second fixed-ratio ray was based on a reduced number of the pesticides (omitting MAL) with the remaining pesticides at the same relative proportions as in the ‘full’ mixture study. The experiment consisted of a vehicle control (n=8), positive controls (n=8 per group) for ACE (30 mg/kg), CPF (20 mg/kg), DIA (125 mg/kg), and DIM (25 mg/kg), and six total dose mixture concentrations (1.75, 9.6, 17.5, 35, 52.5, and 78.8 mg/kg; n=12 rats per dose group) at a fixed mixing ratio ray of (0.229:0.011:0.177:0.583) for (ACE:DIA:CPF:DIM). Casey et al (2003a,b) describe the motor activity data in the mixture of these five pesticides.

SMILES | Threshold Estimate (healthy adult rats) [mg/kg] | Mean Motor Activity Response (healthy adult rats; dose 10 mg/kg) | Mean Motor Activity Response (healthy adult rats; dose 30 mg/kg) | effect when given alone on gait abnormality (rats) | Mean Motor Activity Response (healthy adult rats; dose 5 mg/kg) | Mean Motor Activity Response (healthy adult rats; dose 25 mg/kg) | Mean Motor Activity Response (healthy adult rats; dose 50 mg/kg) | Mean Motor Activity Response (healthy adult rats; dose 75 mg/kg) | other results
COP(=O)(NC(C)=O)SC (centres unmarked) [Acephate, acephate] | 6.30 | 165.88 | 108.75 | significant effect on a gait abnormality |  |  |  |  | Mean Motor Activity Response (healthy adult rats; dose 3 mg/kg): 200.13; Mean Motor Activity Response (healthy adult rats; dose 60 mg/kg): 58.25; Mean Motor Activity Response (healthy adult rats; dose 120 mg/kg): 33.25
CCOP(=S)(OCC)Oc1nc(Cl)c(Cl)cc1Cl [Chlorpyrifos, chlorpyrifos] | 4.69 | 178.31 and 172.13 | 80.13 | significant effect on a gait abnormality | 213.37 | 162.00 | 49.44 and 56.38 |  | Mean Motor Activity Response (healthy adult rats; dose 1 mg/kg): 213.13; Mean Motor Activity Response (healthy adult rats; dose 2 mg/kg): 192.75; Mean Motor Activity Response (healthy adult rats; dose 20 mg/kg): 157.13
CCOP(=S)(OCC)Oc1cc(C)nc(C(C)C)n1 [Diazinon, diazinon] | 25.0 |  |  | significant effect on a gait abnormality | 190.88 | 215.56 | 183.13 | 165.69 | Mean Motor Activity Response (healthy adult rats; dose 125 mg/kg): 152.00; Mean Motor Activity Response (healthy adult rats; dose 150 mg/kg): 76.5; Mean Motor Activity Response (healthy adult rats; dose 250 mg/kg): 61.25
CNC(=O)CSP(=S)(OC)OC [Dimethoate, dimethoate] | 8.72 | 188.63 |  | significant effect on a gait abnormality | 188.25 | 107.75 | 103.75 | 101.50 | 
CCOC(=O)CC(SP(=S)(OC)OC)C(=O)OCC (centres unmarked) [Malathion, malathion] |  |  |  |  |  |  |  |  | effect of malathion on the mixture, motor activity (healthy adult rats; SAR method, full vs reduced ray, p-value 0.068): marginal evidence that malathion has an effect on the mixture; Mean Motor Activity Response (healthy adult rats; dose 100 mg/kg): 201.5; Mean Motor Activity Response (healthy adult rats; dose 500 mg/kg): 203.75; effect of MAL on the mixture, gait abnormality (rats; adjusted comparison of full and reduced rays, listed as MAL): significantly (p=0.016) changes the shape of the dose response curve in the full ray; also recorded: interacts with at least some or all of the other four pesticides; also recorded: interacts with the other pesticides; effect when given alone on gait abnormality (rats; listed as MAL): not dose responsive
